Assays:
SARS-CoV-2 = assay type: cell-based; conditions: for SI (selectivity index): IC50 Vero cell cytotoxicity divided by EC50 of the antiviral assay; for EC50: read-out: Antiviral assay (qPCR) EC50, Vero E6 cells, five concentrations, ± SE
SARS-CoV-2 M^pro = SARS-CoV-2 M^pro (Severe acute respiratory syndrome coronavirus 2, UniProt P0DTD1); assay: biochemical; assay type: biochemical; conditions: ± SE, triplicate readings; for IC50: IC50 against SARS-CoV-2 M^pro

| SMILES | SI (selectivity index) (SARS-CoV-2) | IC50 (SARS-CoV-2 M^pro) | EC50 (SARS-CoV-2) | IC50 against SARS-CoV-2 M^pro (SARS-CoV-2 M^pro) | Antiviral assay (qPCR) Inhibition % (SARS-CoV-2; 10 µM) |
| --- | --- | --- | --- | --- | --- |
| CCC(CC)COC(=O)[C@H](C)N[P@](=O)(OC[C@H]1O[C@@](C#N)(c2ccc3c(N)ncnn23)[C@H](O)[C@@H]1O)Oc1ccccc1 [Remdesivir, reference compound] | 7195 | – | – | – | – |
| Cn1c(C(=O)Nc2ccc(Cl)cc2)cc2c(=O)n3ccccc3nc21 [Compound 22, N-(4-Chlorophenyl)-1-methyl-4-oxo-1,4-dihydropyrido[1,2-a]pyrrolo[2,3-d]pyrimidine-2-carboxamide] | 1766 | 236 ± 4.29 µM | 0.109 ± 0.0111 µM | – | – |
| CC(=O)c1cccc(NC(=O)c2cc3c(=O)n4ccccc4nc3n2C)c1 [Compound 25, N-(3-Acetylphenyl)-1-methyl-4-oxo-1,4-dihydropyrido[1,2-a]pyrrolo[2,3-d]pyrimidine-2-carboxamide] | 1135 | 5.42 µM | – | low micromolar concentrations | – |
| CCc1ccc(NC(=O)c2cc3c(=O)n4ccccc4nc3n2C)cc1 [Compound 24, N-(4-Ethylphenyl)-1-methyl-4-oxo-1,4-dihydropyrido[1,2-a]pyrrolo[2,3-d]pyrimidine-2-carboxamide] | 283.3 | 82.2 ± 15 µM | – | – | – |
| Cc1cccn2c(=O)c3cc(C(=O)Nc4ccc(N(C)C)cc4)n(C)c3nc12 [Compound 26, N-(4-(Dimethylamino)phenyl)-1,9-dimethyl-4-oxo-1,4-dihydropyrido[1,2-a]pyrrolo[2,3-d]-pyrimidine-2-carboxamide] | 2323 | 407.5 ± 3.44 µM | – | – | 94.05% |
| Cc1ccc(NC(=O)c2cc3c(=O)n4cccc(C)c4nc3n2C)cc1Cl [Compound 27, N-(3-Chloro-4-methylphenyl)-1,9-dimethyl-4-oxo-1,4-dihydropyrido[1,2-a]pyrrolo[2,3-d]-pyrimidine-2-carboxamide] | 622.2 | 165 ± 16.7 µM | – | – | – |
| Cc1cc(NC(=O)c2cc3c(=O)n4cccc(C)c4nc3n2C)ccc1Br [Compound 28, N-(4-Bromo-3-methylphenyl)-1,9-dimethyl-4-oxo-1,4-dihydropyrido[1,2-a]pyrrolo[2,3-d]-pyrimidine-2-carboxamide] | 1278 | 46 ± 8.62 µM | – | – | – |
| O=C(Nc1ccccc1F)c1cc2c(=O)n3ccccc3nc2n1Cc1ccccc1 [Compound 21, 1-Benzyl-N-(2-fluorophenyl)-4-oxo-1,4-dihydropyrido[1,2-a]pyrrolo[2,3-d]pyrimidine-2-carboxamide] | 3544 | 25.4 ± 2.4 µM | – | – | – |
| Cn1c(C(=O)Nc2ccc3c(c2)OCCO3)cc2c(=O)n3ccccc3nc21 [Compound 29, N-(2,3-Dihydrobenzo[b][1,4]dioxin-6-yl)-1-methyl-4-oxo-1,4-dihydropyrido[1,2-a]pyrrolo-[2,3-d]pyrimidine-2-carboxamide] | 2909 | 3.22 ± 2.83 µM | 0.0519 ± 0.00512 µM | low micromolar concentrations | – |
